# Results from patent US10421718B2, “EBNA1 inhibitors and their method of use” (priority 2013, dated 2019).
# Biological target: T1, His-EBNA1 (DNA binding domain of EBNA1, amino acids 459-607) (Epstein-Barr virus, UniProt P03211)
# T1 construct: made in house; host or cells: E. coli
# Experiment: Inhibition of 5′-biotin-oPL4624 binding to His-EBNA1 using Alpha Screen technology
# Settings: Alpha Screen Activity (IC50, inhibition of 5′-biotin-oPL4624 binding to His-EBNA1), 15 nM His-EBNA1, 0.2 nM bt-oPL4624, 2 hr room temperature
# Protocol: Inhibition of 5′-biotin-oPL4624 binding to His-EBNA1 using Alpha Screen technology: Assays were performed using the DNA binding domain of EBNA1 (amino acids 459-607), which was His-tagged (His-EBNA1) and the self-complementary biotinylated (bt) oligonucleotide with the sequence 5′-bt-[…]-ATGCTACCC-3′ (bt-oPL4624). The protein was expressed in E. coli and purified according to Barwell, et al. (Barwell J A, Bochkarev A, Pfuetzner R A, Tong H, Yang D S, Frappier L, Edwards A M. (1995) Overexpression, purification, and crystallization of the DNA binding and dimerization domains of the Epstein-Barr virus nuclear antigen 1. J Biol Chem. 270: 20556-9.). The bt-oPL4624 oligonucleotide was purchased from Integrated DNA Technologies, Inc (IDT). AlphaScreen donor, acceptor beads and white, opaque 384-well assay plates were purchased from PerkinElmer, Inc.
# Assays contained 15 nM His-EBNA1, 0.2 nM bt-oPL4624, 5 μg/mL AlphaScreen streptavidin donor beads and nickel chelate acceptor beads, and a series of concentrations of test compound ranging from 3.2 nM to 100 μM in a total volume of 40 μL assay buffer (25 mM Tris, pH 7.2, 160 mM NaCl, 1 mM MgCl2). His-EBNA1 (30 nM) and bt-oPL4624 (0.4 nM) were preincubated with 10 μg/mL nickel chelate AlphaScreen acceptor bead, or 10 μg/mL streptavidin AlphaScreen donor bead, respectively, for 30 minutes at room temperature in assay buffer. Twenty microliters of His-EBNA1/acceptor bead mix and bt-oPL4624/donor bead mix were transferred to assay plates containing […] of 1:3 serial dilutions of test compounds previously prepared in DMSO at concentrations ranging from 0.32 μM to 10 mM. Nonspecific binding was determined with 5 μg/mL AlphaScreen acceptor bead in the absence of His-EBNA1. After 2 hr incubation at room temperature, the AlphaScreen signal was measured on the Envision plate reader (PerkinElmer, Inc.) at 680 nm excitation and 570 nm emission. Inhibition values at each concentration of test compound were determined by setting 100% equal to raw data values in the absence of EBNA1 and 0% equal to the raw data values in the presence of EBNA1. Nonlinear regression fits of the inhibition values to a one-site dose-response equation were performed using GraphPad Prism.
# T1 sequence (P03211 459-607): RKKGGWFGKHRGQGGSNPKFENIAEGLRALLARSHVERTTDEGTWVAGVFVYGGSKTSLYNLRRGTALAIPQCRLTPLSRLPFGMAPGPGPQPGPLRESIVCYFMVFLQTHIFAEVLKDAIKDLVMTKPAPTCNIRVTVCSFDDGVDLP
row,Structure (SMILES),IC50 [nM]
1,"CNS(=O)(=O)c1cccc(C#Cc2cccc(C(=O)O)c2-n2cccc2)c1 [Entry 1, 3-(3-methylsulfamoyl-phenylethynyl)-2-pyrrol-1-yl-benzoic acid]",1000 to 10000
2,"O=C(O)c1cccc(C#Cc2c[nH]c3ccccc23)c1-n1cccc1 [Entry 2, 3-(1H-indol-3-ylethynyl)-2-pyrrol-1-yl-benzoic acid]",< 1000
3,"CS(=O)(=O)Nc1cccc(C#Cc2cccc(C(=O)O)c2-n2cccc2)c1 [Entry 3, 3-[2-(3-methanesulfonamidophenyl)ethynyl]-2-(1H-pyrrol-1-yl)benzoic acid]",< 1000
4,"NS(=O)(=O)c1cccc(C#Cc2cccc(C(=O)O)c2-n2cccc2)c1 [Entry 4, 2-(1H-pyrrol-1-yl)-3-[2-(3-sulfamoylphenyl)ethynyl]benzoic acid]",< 1000
5,"NC(=O)c1cccc(C#Cc2cccc(C(=O)O)c2-n2cccc2)c1 [Entry 5, 3-[2-(3-carbamoylphenyl)ethynyl]-2-(1H-pyrrol-1-yl)benzoic acid]",< 1000
6,"O=C(O)c1cccc(C#Cc2ccc3nccn3c2)c1-n1cccc1 [Entry 6, 3-(2-{imidazo[1,2-a]pyridin-6-yl}ethynyl)-2-(1H-pyrrol-1-yl)benzoic acid]",10000 to 100000
7,"O=C(O)c1cccc(C#Cc2ccnc(O)c2)c1-n1cccc1 [Entry 7, 3-[2-(2-hydroxypyridin-4-yl)ethynyl]-2-(1H-pyrrol-1-yl)benzoic acid]",10000 to 100000
8,"O=C(O)c1cccc(C#Cc2ccc3cn[nH]c3c2)c1-n1cccc1 [Entry 8, 3-[2-(1H-indazol-6-yl)ethynyl]-2-(1H-pyrrol-1-yl)benzoic acid]",1000 to 10000
9,"CC1(C)CN(c2cccc(C#Cc3cccc(C(=O)O)c3-n3cccc3)c2)C1=O [Entry 9, 3-{2-[3-(3,3-dimethyl-2-oxoazetidin-1-yl)phenyl]ethynyl}-2-(1H-pyrrol-1-yl)benzoic acid]",< 1000
10,"CC(C)(CNc1cccc(C#Cc2cccc(C(=O)O)c2-n2cccc2)c1)C(=O)O [Entry 10, 3-(2-{3-[(2-carboxy-2,2-dimethylethyl)amino]phenyl}ethynyl)-2-(1H-pyrrol-1-yl)benzoic acid]",1000 to 10000
11,"O=C(O)c1cccc(C#Cc2cnc3cnccn23)c1-n1cccc1 [Entry 11, 3-(2-{imidazo[1,2-a]pyrazin-3-yl}ethynyl)-2-(1H-pyrrol-1-yl)benzoic acid]",< 1000
12,"O=C(O)c1cccc(C#Cc2cnc3ccccn23)c1-n1cccc1 [Entry 12, 3-(2-{imidazo[1,2-a]pyridin-3-yl}ethynyl)-2-(1H-pyrrol-1-yl)benzoic acid]",< 1000
13,"O=C(O)c1cccc(C#Cc2cccc3nccn23)c1-n1cccc1 [Entry 13, 3-(2-{imidazo[1,2-a]pyridin-5-yl}ethynyl)-2-(1H-pyrrol-1-yl)benzoic acid]",10000 to 100000
14,"O=C(O)c1cccc(C#Cc2cnc3[nH]ccc3c2)c1-n1cccc1 [Entry 14, 2-(1H-pyrrol-1-yl)-3-(2-{1H-pyrrolo[2,3-b]pyridin-5-yl}ethynyl)benzoic acid]",1000 to 10000
15,"Cn1ccc2c(C#Cc3cccc(C(=O)O)c3-n3cccc3)cccc21 [Entry 15, 3-[2-(1-methyl-1H-indol-4-yl)ethynyl]-2-(1H-pyrrol-1-yl)benzoic acid]",< 1000
16,"Cn1ccc2cc(C#Cc3cccc(C(=O)O)c3-n3cccc3)ccc21 [Entry 16, 3-[2-(1-methyl-1H-indol-5-yl)ethynyl]-2-(1H-pyrrol-1-yl)benzoic acid]",< 1000
17,"O=C(O)c1cccc(C#Cc2ccc3ccsc3c2)c1-n1cccc1 [Entry 17, 3-[2-(1-benzothiophen-6-yl)ethynyl]-2-(1H-pyrrol-1-yl)benzoic acid]",1000 to 10000
18,"O=C(O)c1cccc(C#Cc2cccc3cc[nH]c23)c1-n1cccc1 [Entry 18, 3-[2-(1H-indol-7-yl)ethynyl]-2-(1H-pyrrol-1-yl)benzoic acid]",< 1000
19,"O=C(O)c1cccc(C#Cc2ccccc2CO)c1-n1cccc1 [Entry 19, 3-{2-[2-(hydroxymethyl)phenyl]ethynyl}-2-(1H-pyrrol-1-yl)benzoic acid]",< 1000
